# US12083106B2, “Methods of using a pharmaceutical composition containing pirfenidone in sustained-release tablet form” (Excalibur Pharmaceuticals, Inc., priority 2011, dated 2024)
# Experiments:
# [1] = system: progressive renal disease; conditions: animal models; cited from earlier work
# TNF-α [2] = assay: TNF-α serum levels in female rats with silicone implants in mammary glands (ELISA); assay type: in vivo; conditions: daily oral regimen during 21 days; extended release formula before conversion into tablets
# Description: (§1) TNF-α serum levels determination in female rats submitted to the placement of silicone implants in mammary glands for inducing contracture development are shown in FIG. 6. The animals administered a daily regimen of oral Pirfenidone during 21 days. […] TNF-α levels were determined through a commercial ELISA kit.
# [3] = system: fibrosis in the mammary capsule; conditions: administered orally; female rats with silicone implants; cited from earlier work
# TGF-β1 [4] = assay: TGF-β1 serum levels in animals with chronic hepatic damage by CCl4 (ELISA); assay type: in vivo; conditions: treated vs not treated
# [5] = system: chronic renal failure secondary to primary nephropathy; assay: Prospective, open label, 12-month clinical trial in patients with primary nephropathy with renal damage; assay type: in vivo, human; conditions: oral sustained-release tablets every 12 hours, 12 months
# Description: The present study is a prospective, open label, 12-month clinical trial including 30 patients with primary nephropathy, with renal damage (stages 1 to 4 of the KDIGO Classification) between 10 and 40 years of age, from both sexes. […] Said evaluation phase was useful so that the patient could become his/her own control. All of the patients received oral Pirfenidone (in sustained-release tablet form) administered every 12 hours containing 2400 mg/1.73 m^2 BSA, equivalent to […].; besides, they also received a conventional treatment appropriate for primary nephropathy and CRF, such as antihypertensives, alpha-ketoanalogues, phosphate chelating agents, angiotensin II antagonist, low-protein diet, etc. […] Two Doppler ultrasonographic studies were performed on each patient at the beginning of the study and at 12 months. Drug adverse events were evaluated and the loss of renal function and loss percentage were quantified. The use of Pirfenidone in renal function was monitored through cystatin C, plasma reciprocal creatinine and creatinine clearance in 24-hour urine collection.
# [6] = Pirfenidone bioavailability study in healthy volunteers; assay type: in vivo, human; conditions: 600 mg sustained-release tablet form; 11 healthy volunteers
# Description: Pirfenidone Bioavailability Study in Healthy Volunteers According to the Pharmacopoeia Standards
# Said analyses were performed by a laboratory authorized by the Mexican Health Secretariat (Data not shown).
# Maximum concentration data evidenced that the bioavailability is extrapolated to other lower concentrations, i.e., 100, 200 or 400 mg.
# [7] = system: focal segmental glomerulosclerosis; conditions: nephrotic syndrome and focal segmental glomerulosclerosis; cited from earlier work
# [8] = system: breast capsular contracture; assay: Pilot open prospective study in patients with breast capsular contracture (Baker scale, echosonography); assay type: in vivo, human; conditions: for Implant fibrous capsule ILQ thickness, mean: Inner Lower Quadrant; for Implant fibrous capsule IUQ thickness, mean: Inner Upper Quadrant; for Implant fibrous capsule OLQ thickness, mean: Outer Lower Quadrant; for Implant fibrous capsule OUQ thickness, mean: Outer Upper Quadrant
# Description: It is a pilot, open, prospective, longitudinal and analytical essay in which 17 patients diagnosed with an important breast capsular contracture (Grade III and Grade IV, Baker Scale) were treated with Pirfenidone 600 mg administered orally as sustained-release tablets three times per day (every 8 hours) during six months. A blood sample was taken from each patient in order to determine the genetic markers (TGF-β1). […], three Breast echosonographies were made, one at the beginning, the other at the end of the treatment (6 months) and the last one 6 months after the suspension of Pirfenidone treatment (12 months). Two parameters were evaluated: antero-posterior diameter and capsular thickness in all its quadrants (contrasting thickness measurements with the radiological parameters established by Tomas Stavros, 2006 and the radiological clinical correlation of thickness vs Baker Scale established by Alon Zahavi M D, 2006 for the diagnosis of Capsular Contracture). Free liquid in the capsule was looked for, as well as retraction or rupture signs through 5-12 MHz linear or curve transductors. During 12 months, a Breast Clinical Evaluation was also conducted on a monthly basis using Baker Classification. Deformation, texture through palpation and sensitivity were evaluated. A registration of each evaluation was made with digital photographs. The clinical and radiological changes of each breast were evaluated by a plastic surgeon and a qualified radiologist. The statistical analysis included 20 cases, taking into account that 3 patients presented bilateral capsular contracture of different grade in each breast; a total of 20 breasts were analyzed. Finally, the statistical analysis of the ordinal scale variables was conducted with means and ranges; and for the contrasts, Wilcoxon matched-pairs signed-ranks and Chi^2 were used. With regard to the Ratio Interval variables, the mean and standard deviation were used; and for the contrast, Student's t test for paired samples was used in which a case is compared against another case.
# TNF-α [9] = assay: TNF-α serum levels in animals with chronic hepatic damage by CCl4 (ELISA); assay type: in vivo; conditions: treated vs not treated
# [10] = renal failure patients treated with hemodialysis; cited from earlier work
# TGF-β1 [11] = assay: TGF-β1 serum levels in female rats with silicone implants in mammary glands (ELISA); assay type: in vivo; conditions: daily oral regimen during 21 days; extended release formula before conversion into tablets
# Description: as §1, with “TGF-β1” for “TNF-α”, “5.” for “6.”, “animals were” for “animals”
# hepatic fibrosis = conditions: patients with hepatic fibrosis; expanded study; cited from earlier work
# [12] = Initial (before treatment), 20 cases
smiles,measurement,setting,value
"Cc1ccc(=O)n(-c2ccccc2)c1 [Pirfenidone, 5-methyl-1-phenyl-2-(1H)-pyridone]",TGF-β expression,[1],reduces TGF-β expression
same,development of progressive renal disease,[1],Can prevent the development of progressive renal disease
same,"growth, development and toxic effects in treated animals",[1],grew and developed normally and without toxic effects
same,proteinuria levels,[1],Reduces proteinuria levels
same,renal function / collagen accumulation in the renal cortex,[1],Improves renal function reducing collagen accumulation in the renal cortex
same,urea nitrogen and serum creatinine levels,[1],Reduces urea nitrogen and serum creatinine levels
same,"action on TNF-α (TNF-α serum levels, FIG. 6)",TNF-α [2],extremely potent and selective TNF-α inhibiting action
same,development of fibrosis in the mammary capsule,[3],prevents the development of the characteristic fibrosis
same,TGF-β1 serum level (FIG. 5),TGF-β1 [4],lower TGF-β1 serum level
same,renal damage progression rate,"[5]; 2400 mg/1.73 m^2 BSA, phases 1-4 KDIGO",influenced positively
same,drug side-effects in patients with primary nephropathy,[5],limited to a minimum percentage of patients and disappeared rapidly
same,effect on proteinuria,[5],beneficial effect
same,"histological damage to the affected kidneys (comparative ultrasonographic changes, beginning vs end of treatment)",[5],detains the histological damage
same,time till which bioavailability is prolonged,[6],12 h
same,delay of renal function impairment,[7],favorable results
same,"change of breast capsular contracture grade, all cases","[8]; 600 mg SR tablets orally three times per day, six months, 20 cases",reduction of breast capsular contracture grade
same,cases with relapse of capsular contracture (WCSECC to grade III),"[8]; 6-month follow up after Pirfenidone discontinuation, 1 case grade IV, use of steroids and excessive exercise",5%
same,number of cases WCSECC (Without Clinical or Sonographic Evidence of Capsular Contracture),"[8]; 6 Months (end of treatment, 600 mg SR tablets three times per day), 20 cases",10 cases
same,number of cases with contracture grade I (Baker Scale),"[8]; 6 Months, 20 cases",5 cases
same,number of cases with contracture grade III (Baker Scale),"[8]; 6 Months, 20 cases",5 cases
same,"patients with side effects (stomach aches, fatigue, skin dermatosis, photosensitivity)",[8]; 6 of 17 patients,35%
same,mean duration of side effects,[8]; 6 patients with side effects,10.8 days
same,BAKER SCALE Mean,"[8]; 12-month follow-up, n = 20, P 0.0001 vs beginning",0.5
same,number of cases WCSECC,"[8]; 12 months (6 months after suspension of treatment), 20 cases",14 cases
same,number of cases with contracture grade II (Baker Scale),"[8]; 12 months, 20 cases",1 cases
same,number of cases with contracture grade III (Baker Scale),"[8]; 12 months, 20 cases",5 cases
same,BAKER SCALE Mean (Range),"[8]; Beginning of the study, n = 20",4 (3-4)
same,"Implant fibrous capsule ILQ thickness, mean",[8]; Beginning,1.86 centimeters
same,"Implant fibrous capsule IUQ thickness, mean",[8]; Beginning,1.6 centimeters
same,"Implant fibrous capsule OLQ thickness, mean",[8]; Beginning,1.775 centimeters
same,"Implant fibrous capsule OUQ thickness, mean",[8]; Beginning,1.505 centimeters
same,"Implant fibrous capsule ILQ thickness, mean",[8]; End,1.115 centimeters
same,"Implant fibrous capsule IUQ thickness, mean",[8]; End,1.19 centimeters
same,"Implant fibrous capsule OLQ thickness, mean",[8]; End,1.185 centimeters
same,"Implant fibrous capsule OUQ thickness, mean",[8]; End,1.18 centimeters
same,number of cases with contracture grade III (Baker Scale),[8]; [12],9 cases
same,number of cases with contracture grade IV (Baker Scale),[8]; [12],11 cases
same,"breast capsular contracture evolution, Baker scale (FIG. 1)","[8]; all the cases, after PFD administration",important improvement
same,"Initial AP Diameter of the breast implant, mean",[8]; echographically measured at the beginning (before treatment),7.57 centimeters
same,"AP Diameter at 12 months, mean","[8]; echographically measured, P = N.S. vs 6 months",6.085 centimeters
same,"AP Diameter at 6 months, mean","[8]; echographically measured, P ≤ .001 vs beginning",6.425 centimeters
same,cases with gradual reduction of antero-posterior diameter (APD) and capsule thickness,"[8]; echographies at 6 and 12 months, 19 cases",95%
same,cases showing retraction data and light subcapsular liquid,"[8]; end of the study, group that passed from grade IV to grade III, two cases",10%
same,"contracture state of left breast, single patient (FIG. 2)","[8]; initially grade III, after six-month PFD administration",Not Detectable by Ultrasound or Clinical Examination
same,"contracture state of both breasts, single patient (FIG. 3)","[8]; initially grade IV, end of the protocol",Capsular Contracture Not Detectable by Ultrasound or Clinical Examination
same,cases reduced from grade IV to grade II,[8]; of 20 cases (1 case),5%
same,cases initially grade IV that concluded WCSECC,[8]; of 20 cases (5 cases),25%
same,cases reduced from grade IV to grade III,[8]; of 20 cases (5 cases),25%
same,cases initially grade III that concluded WCSECC,[8]; of 20 cases (9 cases),45%
same,cases concluded Without Clinical or Sonographic Evidence of Capsular Contracture (WCSECC),[8]; of 20 cases (n=14),70%
same,cases of relapse (FIG. 1),[8]; six-month follow-up,one
same,"relapse, single patient (FIG. 2)",[8]; six-month follow-up,lack of relapse
same,TNF-α serum level (FIG. 6),TNF-α [9],lower TNF-α serum level
same,need to adjust dose in patients with renal damage (pharmacokinetics),[10],not necessary to adjust the pirfenidone dose
same,tolerability in patients with Terminal Chronic Renal Failure (TCRF),[10],well tolerated
same,"action on TGF-β production (TGF-β1 serum levels, FIG. 5)",TGF-β1 [11],extremely potent and selective inhibiting action
same,effects evidenced through hepatic biopsy,hepatic fibrosis,beneficial effects
